# Measured values published in patent US20260048118A1, “COMPOSITIONS AND METHODS FOR ENHANCING TRIPLEX AND NUCLEASE-BASED GENE EDITING” (Yale University, priority 2018, published 2026).
# How the values were obtained:
# [1] = system: CD117+ cells from bone marrow and spleen of β-globin/GFP transgenic mice; assay: In vivo gene editing in CD117+ cells of β-globin/GFP transgenic mice, GFP flow cytometry; design: species or system mouse; conditions: 0.5 mg 3E10 i.p. 3 h before 2 mg PNA/DNA nanoparticles i.v.; harvested after eight days
# Method: To evaluate the effects of 3E10 on PNA/DNA directed gene editing in vivo, the same β-globin/GFP transgenic mouse model described above was used. Three hours prior to treatment with nanoparticles, mice were injected with 0.5 mg of 3E10 intraperitoneally (i.p.). Either the full-length 3E10 or a single-chain variable fragment (scFv) were used. Two mg of nanoparticles containing PNA/Donor DNA were then injected intravenously. After eight days, bone marrow and spleens were harvested and CD117+ cells (C-KIT+, a marker of hematopoietic stem and progenitor cells) from these tissues were isolated using a Hematopoietic Progenitor Stem Cell Enrichment Set (BD Bioscience). Following enrichment, cells were analyzed via flow cytometry for GFP expression.
# [2] = system: bone marrow cells from Townes mice (beta globin gene, SCD mutation); assay: PNA/DNA editing of beta globin SCD mutation in bone marrow cells from Townes mice, ddPCR; format: cell-based, mouse; conditions: 2 mg nanoparticles per well, 48 h, 3E10 line: full length 3E10 plus nanoparticles
# Method: Bone marrow cells were isolated from the same transgenic mouse model of sickle cell disease described above in Example 3 (Townes model, Jackson Laboratory). Cells were treated with full length 3E10 plus 2 mg of nanoparticles per well. The nanoparticles contained the donor DNA plus tcPNA2A, designed to bind to and correct the beta globin gene at the site of the SCD mutation (A:T to T:A).
# After 48 hours, the cells were washed prior to genomic DNA isolation (SV Wizard, Promega). Freshly isolated genomic DNA was analyzed by droplet digital PCR (ddPCR) to quantify gene editing frequencies.
# [3] = system: K562 cells carrying a BFP/GFP reporter gene; assay: CRISPR/Cas9 D10A nickase gene editing in K562 BFP/GFP reporter cells, flow cytometry; format: cell-based, human; conditions: full-length 3E10 1.5 mg/mL=10 μM, RNP plus donor DNA nucleofected, two days
# Method: K562 cells carrying a BFP/GFP reporter gene (Richardson, et al., Nat. Biotechnol., 34 (3): 339-44 (2016)) were transfected with CRISPR/Cas9 WT or CRISPR/Cas9 D10A nickase variant enzymes plus a guide RNA targeting the mutation site in GFP. Some samples were also treated with full-length 3E10, at a concentration of 1.5 mg/mL=10 μM.
# Cas9 protein and guide RNAs were introduced by nucleofection as a ribonucleoprotein (RNP) complex. 45 pmol of Cas9 protein (D10A nickase variant or WT, both obtained from PNA Bio) with 45 pmol of sgRNA (synthesized with Invitrogen GeneArt kit) in Cas9 nuclease buffer (NEB), were pre-incubated for 5 minutes at room temperature.
# Cells were nucleofected with the RNP complex and donor DNA having the sequence:
# The frequency of gene editing was measured two days later by flow cytometry for green fluorescence.
# [4] = system: bone marrow cells of Townes mice (codon 6 mutation in the beta globin gene); assay: In vivo PNA/DNA editing in Townes mice, bone marrow cells analysed by ddPCR; design: species or system mouse; conditions: 4 doses of 2 mg nanoparticles over 2 weeks, analysed after two months; 3E10 line: 1 mg 3E10 i.p. 3 h prior to each dose
# Method: To further validate whether 3E10 can boost gene editing in vivo, the Townes model (the same sickle cell transgenic mouse model used in Examples 3 and 4) was used. Mice were injected with a total of 4 doses of 2 mg of nanoparticles containing PNA/donor DNA over the course of 2 weeks, with the goal of correcting the codon 6 mutation in the beta globin gene. Three hours prior to each nanoparticle administration, mice were injected with 1 mg of 3E10 intraperitoneally (i.p). After two months, bone marrow cells were harvested and analyzed for editing via digital droplet PCR (ddPCR). Injections were performed […] every 3 days over the course of 2 weeks as described above.
# [5] = system: SC-1 cells, a human lymphoblastoid cell line that carries the SCD mutation; assay: Beta globin editing in SC-1 cells, ddPCR; format: cell-based; conditions: 2 mg nanoparticles per well, 48 h, 3E10 line: 3E10 prior to nanoparticles
# Method: SC-1 cells, a human lymphoblastoid cell line that carries the SCD mutation, were treated with 2 mg of nanoparticles per well with or without 3E10. After 48 hours, the cells were washed prior to genomic DNA isolation (SV Wizard, Promega). Freshly isolated genomic DNA was analyzed by droplet digital PCR (ddPCR) for editing frequencies.
substance,measurement,setting,value
3E10: cell-penetrating monoclonal anti-DNA antibody that binds to and inhibits RAD51; produced by ATCC No. PTA 2439 hybridoma,gene editing in bone marrow CD117+ cells vs nanoparticles alone,[1],higher levels of gene editing
same,gene editing in spleen CD117+ cells vs nanoparticles alone,[1],higher levels of gene editing
same,gene editing frequency (ddPCR),[2],more than 8%
same,effect on gene editing by nickase Cas9 D10A (green fluorescence),[3],substantially boosted gene editing
same,average editing frequency in bone marrow cells (ddPCR),[4],2.1%
same,gene editing frequency (ddPCR),[5],17%
